Patent publication US20250152719A1, “FUSED IMIDE DERIVATIVE” (Chia Tai Tianqing Pharmaceutical Group Co., Ltd., priority 2021, published 2025)

What was measured:
Assay type in all cases: cell-based
[1] = molecular target: BTK (Homo sapiens (Human), UniProt Q06187); test: BTK degradation in OCI-LY10 cells (Total-BTK HTRF kit); details: 24 (or 6) h incubation; for DC50 / BTK degradation in OCI-LY10 cells Dmax: OCI-LY10 cells; for DC50: DC50 = concentration when degradation rate reaches 50%, read-out: OCI-LY10 cell BTK degradation DC50; for Dmax: OCI-Ly10, OCI-LY10 cells; for Dmax / BTK degradation in OCI-LY10 cells Dmax: maximum degradation rate
Protocol: The detection was carried out using the Total-BTK Kits (cisbio, 63ADK064PEH), and 4× Supplemented Lysis buffer was prepared using the Blocking reagent stock solution (100×) and Lysis buffer stock solution (4×). Premixed antibody solutions were prepared using the Detection buffer, Total-BTK d2 antibody, and Total-BTK Eu Cryptate antibody.
OCI-LY10 cells in a good growth state were collected and added to a centrifuge tube, adjusted to a cell density of 4.17×10^6 cells/mL, and seeded in a 384-well plate (12 μL/well). The cells were incubated overnight in a cell incubator. Compounds were added using a nanoliter pipettor such that the final concentrations of the compounds were 100 nM-0.098 nM; the addition was performed in duplicate, and meanwhile, a control was set. After another 24 (or 6) h of incubation in the cell incubator, the 4× Supplemented Lysis buffer was added at 4 μL/well to lyse the cells. After the cells were shaken for 40 min at room temperature, the Premixed antibody solutions were added at 4 μL/well, and the cells were left to stand overnight at room temperature. Fluorescence values of the cells were detected at 665 nm/620 nm using an Envision microplate reader, the four-parameter analysis was performed, the dose-response curves were fit, and DC50 (the concentration of the drug when the degradation rate reaches 50%) and Dmax (the maximum degradation rate) were calculated.

[2] = tested on: OCI-LY10 cells; test: Inhibitory activity on OCI-LY10 cell proliferation (CCK-8); details: Homo sapiens, OCI-Ly10, 72 h incubation
Protocol: (§1) OCI-LY10 cells in a good growth state were collected and added to a centrifuge tube, adjusted to a cell density of 1×10^5 cells/mL, and seeded in a 96-well plate (100 μL/well). The cells were incubated overnight in a cell incubator. Compounds were added using a nanoliter pipettor such that the final concentrations of the compounds were 5000 nM-0.31 nM; the addition was performed in duplicate, and meanwhile, a control was set. After another 72 h of incubation in the cell incubator, 10 μL of CCK-8 (CK04, PP799) was added. After 2.5 h of incubation in the cell incubator, absorbance values were detected at 450 nm using an Envision microplate reader, the four-parameter analysis was performed, the dose-response curves were fit, and IC50 was calculated.

[3] = tested on: TMD8-BTK(C481S) cells; test: Inhibitory activity on TMD8-BTK(C481S) cell proliferation (CCK-8); details: 72 h incubation
Protocol: as §1, with “TMD8-BTK(C481S)” for “OCI-LY10”, “8×10^4” for “1×10^5”, “4” for “2.5”

Chain of BTK (Q06187 whole entry): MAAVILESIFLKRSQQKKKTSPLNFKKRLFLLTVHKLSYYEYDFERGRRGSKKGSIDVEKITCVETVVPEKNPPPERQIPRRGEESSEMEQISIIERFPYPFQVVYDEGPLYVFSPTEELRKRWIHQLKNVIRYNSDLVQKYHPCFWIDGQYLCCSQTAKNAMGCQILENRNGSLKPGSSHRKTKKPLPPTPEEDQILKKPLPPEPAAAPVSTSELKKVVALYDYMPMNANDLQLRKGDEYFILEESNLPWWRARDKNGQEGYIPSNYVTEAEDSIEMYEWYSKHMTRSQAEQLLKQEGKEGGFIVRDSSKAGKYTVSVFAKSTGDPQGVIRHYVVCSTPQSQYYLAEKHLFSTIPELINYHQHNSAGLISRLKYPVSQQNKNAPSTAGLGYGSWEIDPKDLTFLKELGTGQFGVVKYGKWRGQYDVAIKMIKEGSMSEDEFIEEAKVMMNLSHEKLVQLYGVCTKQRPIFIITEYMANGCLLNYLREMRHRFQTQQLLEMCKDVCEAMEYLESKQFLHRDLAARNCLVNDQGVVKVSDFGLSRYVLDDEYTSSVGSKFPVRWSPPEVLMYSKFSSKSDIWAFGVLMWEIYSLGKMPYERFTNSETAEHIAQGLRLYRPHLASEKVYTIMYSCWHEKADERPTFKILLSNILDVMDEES

Row | Structure (SMILES) | DC50 [1] [nM] | Dmax [1] [%] | IC50 [2] [nM] | IC50 ([3]; 72 h) [nM] | BTK degradation in OCI-LY10 cells Dmax [1] [%] | IC50 [3] [nM]
1 | CN1CCN([C@@H]2CCCN(c3cnc(C(N)=O)c(Nc4ccc(C5CCN(C[C@H]6CCN(c7ccc8c(C9CCC(=O)NC9=O)noc8c7)C6)CC5)cc4)n3)C2)C1=O (stereo partly drawn) [Compound 1] | < 0.098 | 99 | < 0.31 | 35 | – | –
2 | CN1CCN([C@@H]2CCCN(c3cnc(C(N)=O)c(Nc4ccc(C5CCN(C[C@H]6CCN(c7cc8onc(C9CCC(=O)NC9=O)c8cc7F)C6)CC5)cc4)n3)C2)C1=O (stereo partly drawn) [Compound 3] | < 0.098 | 99 | < 0.31 | – | – | –
3 | CN1CCN([C@@H]2CCCN(c3cnc(C(N)=O)c(Nc4ccc(C5CCN(C[C@H]6CCC(c7ccc8c(C9CCC(=O)NC9=O)noc8c7)C6)CC5)cc4)n3)C2)C1=O (stereo partly drawn) [Compound 6] | < 0.098 | 99 | < 0.31 | 27 | – | –
4 | CN1CCN([C@@H]2CCCN(c3cnc(C(N)=O)c(Nc4ccc(C5CCC6(CC5)CN(CC5CN(c7ccc8c(C9CCC(=O)NC9=O)noc8c7)C5)C6)cc4)n3)C2)C1=O (stereo partly drawn) [Compound 11] | < 0.098 | 99 | < 0.31 | 14 | – | –
5 | CN1CCN([C@@H]2CCCN(c3cnc(C(N)=O)c(Nc4ccc(C5C[C@@H]6CN(CC7Cc8ccc9c(C%10CCC(=O)NC%10=O)noc9c8C7)C[C@@H]6C5)cc4)n3)C2)C1=O (stereo partly drawn) [Compound 48] | – | > 90 | – | 5.7 | – | –
6 | CN1CCN([C@@H]2CCCN(c3cnc(C(N)=O)c(Nc4ccc(C5C[C@@H]6CN(CC7Cc8ccc9c(C%10CCC(=O)NC%10=O)noc9c8C7)C[C@@H]6C5)cc4)n3)C2)C1=O (stereo partly drawn) [Compound 49] | – | – | – | – | >90 | 6.8
7 | CN1CCN([C@@H]2CCCN(c3cnc(C(N)=O)c(Nc4ccc(C5CCC6(CC5)CCN(CC5Cc7ccc8c(C9CCC(=O)NC9=O)noc8c7C5)CC6)cc4)n3)C2)C1=O (stereo partly drawn) [Compound 51] | – | – | – | – | >90 | 4.7
8 | CN1CCN([C@@H]2CCCN(c3cnc(C(N)=O)c(Nc4ccc(C5CCC6(CC5)CN(CC5Cc7ccc8c(C9CCC(=O)NC9=O)noc8c7C5)C6)cc4)n3)C2)C1=O (stereo partly drawn) [Compound 52] | – | – | – | 3.7 | >90 | –
9 | CN1CCN([C@@H]2CCCN(c3cnc(C(N)=O)c(Nc4ccc(C5CCC6(CC5)CN(CC5Cc7ccc8c(C9CCC(=O)NC9=O)noc8c7C5)C6)cc4)n3)C2)C1=O (stereo partly drawn) [Compound 53] | < 0.098 | 96 | < 0.31 | – | – | 2.8
10 | CN1CCN(C2CCCN(c3cnc(C(N)=O)c(Nc4ccc(C5CCC6(CC5)CN(C5Cc7ccc8c(C9CCC(=O)NC9=O)noc8c7C5)C6)cc4)n3)C2)C1=O (stereo not drawn) [Compound 54] | – | > 90 | – | 9.7 | – | –
11 | CN1CCN(C2CCCN(c3cnc(C(N)=O)c(Nc4ccc(C5CCC6(CC5)CN(C5Cc7ccc8c(C9CCC(=O)NC9=O)noc8c7C5)C6)cc4)n3)C2)C1=O (stereo not drawn) [Compound 55] | – | – | – | – | >90 | 6.1
12 | CN1CCN([C@@H]2CCCN(c3cnc(C(N)=O)c(Nc4ccc(C5CCC6(CC5)CC(N5Cc7ccc8c(C9CCC(=O)NC9=O)noc8c7C5)C6)cc4)n3)C2)C1=O (stereo partly drawn) [Compound 56] | – | > 90 | – | 33 | – | –
13 | CN1CCN([C@@H]2CCCN(c3cnc(C(N)=O)c(Nc4ccc(C5CCC6(CC5)CC(N5CCc7c(ccc8c(C9CCC(=O)NC9=O)noc78)C5)C6)cc4)n3)C2)C1=O (stereo partly drawn) [Compound 58] | – | > 90 | – | 21 | – | –
14 | NC(=O)c1ncc(N2CCCCC2)nc1Nc1ccc(N2CCC(N3CCc4ccc5c(C6CCC(=O)NC6=O)noc5c4CC3)CC2)cc1 (stereo not drawn) [Compound 62] | – | > 90 | < 0.31 | 8.2 | – | –
15 | NC(=O)c1ncc(N2CCCCC2)nc1Nc1ccc(C2CCN(CC3Cc4ccc5c(C6CCC(=O)NC6=O)noc5c4C3)CC2)cc1 (stereo not drawn) [Compound 76] | – | > 90 | – | – | – | 11
16 | CN1CCN([C@@H]2CCCN(c3cnc(C(N)=O)c(Nc4ccc(C5CCN(C6Cc7ccc8c(C9CCC(=O)NC9=O)noc8c7C6)CC5)cc4)n3)C2)C1=O (stereo partly drawn) [Compound 88] | – | – | – | – | >90 | 29
